Measured values as given in patent publication US20130131062A1, “PYRIDAZINONES AND FURAN-CONTAINING COMPOUNDS” (priority 2006, published 2013).
Where two headings read alike, the source gives them in different places.

Columns and labels:
[1] = tested on: H358; test: Non Small Cell Lung Cancer Proliferation Assay (Alamar Blue), dose response; conditions: Homo sapiens, NCI-H358, read-out: H358 Dose Response (uM)
Method: (§11) This assay was performed on a fully automated linear track robotic platform (CRS F3 Robot System, Thermo Electron Corp., Ontario, Canada) utilizing several integrated peripherals for plate handling, liquid dispensing, and readout detection. […] The microplates are then placed at 37° C. for 48 hours to complete treatment of cells with compounds. Next, 5 ul of alamar blue was added using a liquid dispenser (FlexDrop Precision Dispenser, Perkin Elmer, Mass., USA) and incubated for 48 hours at 37° C. The alamar blue prompt fluorescence was measured on Victor V (Victor^3 V, Perkin Elmer, Mass., USA) and output data files were loaded into ORIS (Oncology Research Informatics System, MSKCC, NY, USA), a screening data acquisition and analysis platform. […]

[2] = in vitro; conditions: human
Method: NHBE (normal human bronchiolar epithelial cells) are primary cells obtained from donor lungs and commercially available from Cambrex. The HPLID (human peripheral lung epithelial) cell line has been immortalized with the SV40 large T-antigen. WI-38: human lung fibroblast cell line. HPLID, NHBE and WI-38 cells will serve as controls in the chemical screens. WT: wildtype; WT*: over-expressed wildtype.
Compounds were tested in dose response studies from 10 μM to 5 nM against several non small cell lung cancer lines: H358, H827, H1118, H1650, H1734, H1975, H2030, and H3255, and were also studied in a 72 hour cytotoxicity assay against the NHBE and WI-38 cell lines.

[3] = tested on: H1118; test: Non Small Cell Lung Cancer Proliferation Assay (Alamar Blue), dose response; conditions: Homo sapiens, read-out: H1118 Dose Response (uM)
Method: as §11

[4] = tested on: H1650; test: Non Small Cell Lung Cancer Proliferation Assay (Alamar Blue); format: cell-based, human; conditions: Homo sapiens, NCI-H1650, dose response 10 μM to 5 nM
Method: (§1) Non Small Cell Lung Cancer cell lines are grown and maintained in Corning 175 cm2 flasks in RPMI 1640 media supplemented with 10% FBS, 1% antibiotic solution, 1% additional glutamine and pyruvate. These cells have a doubling time of 1-2 days. All cell types are adherent and grow in colonies. The cells should be kept at a density between 50,000 cells/mL-500,000 cells/mL to provide for optimum growth and adequate nutrition. The cell line should be maintained at 37° C. in a humidified atmosphere with 5% CO2 in a sterile cell culture incubator.
(§2) To perform the assay, the Non Small Cell Lung Cancer lines are diluted in media and plated into 384 well microplates at a final density of 250 cells in 45 μL. To ensure consistency and minimal pipetting error, the cells are plated using the Multidrop 384 with the following settings: Rocker Switch set at 384, Volume 45 and Column 24.
(§3) Low Controls for this assay are made by treating Non Small Cell Lung Cancer cells with 5 ul of staurosporine at 250 uM in 10% DMSO and 1% SDS. [Final concentration in this assay is 25 uM staurosporine in 1% DMSO and 0.1% SDS.]
(§4) High Controls for this assay are made by treating Non Small Cell Lung Cancer cells with 5 ul of 10% DMSO. [Final concentration in this assay is 1% DMSO].
(§5) The remaining wells of the 384 microplate may be treated with different compounds depending on the study. Important Note: All compounds for testing in this assay should be done at the final concentration of 1% DMSO.
(§6) After addition, the cells are placed in cell culture incubator at 37° C. for 48 hours for complete treatment.
(§7) After drug treatment, cytotoxicity is measured by Alamar Blue reduction. 5 μL of Alamar Blue is added to the 384 microplates using the Flexdrop.
(§8) The cells are incubated for 48 hours at 37° C. to complete the Alamar Blue reduction.
(§9) The final step in the assay is to measure the amount of Alamar Blue reduction. […] The Alamar Blue fluorescence is measured at an excitation of 530 nm and emission of 590 nm.
(§10) For the NSCLC project, the cell based assay was screened against a small molecule library of approximately 200,000 compounds. The compound library is stored in our automated robotic freezer (Biophile) at −20° C. in 100% DMSO. Compound freeze and thaw cycles are kept to a minimum. Compounds for use are diluted into the appropriate concentration and plated into 384 well microplates using our custom built low volume 384-well head tool (TPS 384, Apricot Designs Inc., CA, USA). This assay was performed on a fully automated linear track robotic platform (CRS F3 Robot System, Thermo Electron Corp., Ontario, Canada) utilizing several integrated peripherals for plate handling, liquid dispensing, and readout detection. First, non-small cell lung cancer cell lines are dispensed into 384 well microplates (Corning #3712 Tissue Culture Treated Plate, Corning, N.Y., USA) with 5 μL of test compounds at 100 uM in 10% DMSO for screening studies or 1 mM in 10% DMSO to 50 nM in 10% DMSO for dose response studies. The microplates are then placed at 37° C. for 48 hours to complete treatment of cells with compounds. Next, 5 ul of alamar blue was added using a liquid dispenser (FlexDrop Precision Dispenser, Perkin Elmer, Mass., USA) and incubated for 48 hours at 37° C. The alamar blue prompt fluorescence was measured on Victor V (Victor^3 V, Perkin Elmer, Mass., USA) and output data files were loaded into ORIS (Oncology Research Informatics System, MSKCC, NY, USA), a screening data acquisition and analysis platform.

[5] = tested on: H1975; test: as above; format: cell-based, human; conditions: Homo sapiens, NCI-H1975, dose response 10 μM to 5 nM
Method: as §1, §2, §3, §4, §5, §6, §7, §8, §9, §10

[6] = tested on: 15 non small cell lung cancer lines representing various EGFR and KRAS mutations; test: Dose response studies against 15 NSCLC lines (alamar blue); format: cell-based, human; conditions: 12 point doubling dilution 10 uM to 5 nM, alamar blue
Method: Dose response studies against 34 compounds from the pyridazinone and phenylfuran-carboxamide class were conducted. […] In addition, Tarceva was included in these dose response studies.
The dose response studies were done with the following standard procedure. First, the cells were counted and dispensed at 250 cells/well into 384-well microplates with compound. The cells were incubated for 48 hours at 37 C to complete treatment, and then alamar blue was added for an additional 48 hours. Finally, alamar blue reduction was measured and the data was loaded into ORIS, our data screening acquisition platform.

[7] = tested on: H827; test: Non Small Cell Lung Cancer Proliferation Assay (Alamar Blue), dose response; conditions: Homo sapiens, read-out: H827 Dose Response (uM)
Method: as §11

[8] = tested on: H1734; test: as above; conditions: Homo sapiens, NCI-H1734, read-out: H1734 Dose Response (uM)
Method: as §11

IC50 [1]: 0.74 µM
IC50 at 72 h [2]: 7.52 µM
IC50 [3]: 0.49 µM
IC50 [4]: 2.74 µM
IC50 [5]: 0.47 µM
IC50 ([6]; Homo sapiens, NCI-H358, H358 (EGFR WT, KRAS G12C), read-out: IC50 H358): 1.7 µM
IC50 ([6]; Homo sapiens, NCI-H460, H460 (EGFR WT, KRAS Q61H), read-out: IC50 H460): 3.68 µM
IC50 ([6]; Homo sapiens, NCI-H820, H820 (EGFR T790M/DelE746-A750, KRAS WT), read-out: IC50 H820): 0.47 µM
IC50 ([6]; Homo sapiens, NCI-H1650, H1650 (EGFR DelE746-A750, KRAS WT), read-out: IC50 H1650): 1.67 µM
IC50 ([6]; Homo sapiens, NCI-H1734, H1734 (EGFR WT, KRAS G13C), read-out: IC50 H1734): 3.2 µM
IC50 ([6]; Homo sapiens, NCI-H1975, H1975 (KRAS WT), read-out: IC50 H1975): 0.76 µM
IC50 ([6]; Homo sapiens, NCI-H2030, H2030 (EGFR WT, KRAS G12C), read-out: IC50 H2030): 1.38 µM
IC50 ([6]; Homo sapiens, NCI-H2122, H2122 (EGFR WT, KRAS G12C), read-out: IC50 H2122): 2.16 µM
IC50 ([6]; Homo sapiens, NCI-H2444, H2444 (EGFR WT, KRAS G12V), read-out: IC50 H2444): 1.05 µM
IC50 ([6]; Homo sapiens, NCI-H3255, H3255 (EGFR L858R, KRAS WT), read-out: IC50 H3255): 3.16 µM
IC50 ([6]; Homo sapiens, A549 (EGFR WT, KRAS G12S), read-out: IC50 A549): 2.13 µM
IC50 ([6]; Homo sapiens, H23 (EGFR WT, KRAS G12C), read-out: IC50 H23): 0.31 µM
IC50 ([6]; Homo sapiens, H1118 (EGFR L858R, KRAS WT), read-out: IC50 H1118): 0.83 µM
IC50 ([6]; Homo sapiens, PC9 (EGFR DclE746-A750, KRAS WT), read-out: IC50 PC9): 2 µM
IC50 [7]: 0.71 µM
IC50 [8]: 3.2 µM
Structure (SMILES): Cc1ccccc1-n1ncc(Cl)c(Cl)c1=O [compound 257017]
IC50 at 72 h ([2]; NHBE CytoTox (uM)): 5.17 µM
IC50 ([6]; HPL1D (SV40-immortalized human lung epithelian cells, EGFR WT, KRAS WT), read-out: IC50 HPL1D): 1.14 µM
